Measurements reported in PubChem BioAssay (NCI).
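Method: 48-hour compound exposure of cells in 96-well plates, five concentrations, linear interpolation of endpoints. TGI marks complete inhibition of growth.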

Tests used:
Experiment in all cases: inhibition of tumour cell growth, NCI panel, 48 h
CCRF-CEM leukemia = tested on: CCRF-CEM leukemia
ACHN renal = tested on: ACHN renal
KM12 colon = tested on: KM12 colon
NCI-H226 lung = tested on: NCI-H226 lung
UACC-62 melanoma = tested on: UACC-62 melanoma
SF-295 CNS = tested on: SF-295 CNS
A498 renal = tested on: A498 renal
HOP-62 NSCLC = tested on: HOP-62 NSCLC
HL-60(TB) leukemia = tested on: HL-60(TB) leukemia
UACC-257 melanoma = tested on: UACC-257 melanoma
HCT-15 colon = tested on: HCT-15 colon
SR leukemia = tested on: SR leukemia
OVCAR-8 ovarian = tested on: OVCAR-8 ovarian
HCT-116 colon = tested on: HCT-116 colon
NCI/ADR-RES ovarian = tested on: NCI/ADR-RES ovarian
RPMI-8226 leukemia = tested on: RPMI-8226 leukemia
NCI-H460 lung = tested on: NCI-H460 lung
IGROV1 ovarian = tested on: IGROV1 ovarian
MCF7 breast = tested on: MCF7 breast
CAKI-1 renal = tested on: CAKI-1 renal
SK-MEL-28 melanoma = tested on: SK-MEL-28 melanoma
MDA-MB-435 = tested on: MDA-MB-435
HCC-2998 colon = tested on: HCC-2998 colon
U251 CNS = tested on: U251 CNS
SW-620 colon = tested on: SW-620 colon
K-562 leukemia = tested on: K-562 leukemia
RXF 393 renal = tested on: RXF 393 renal
COLO 205 colon = tested on: COLO 205 colon
786-0 renal = tested on: 786-0 renal
SN12C renal = tested on: SN12C renal
MDA-MB-231 breast = tested on: MDA-MB-231 breast
HS 578T breast = tested on: HS 578T breast
DU-145 prostate = tested on: DU-145 prostate
MOLT-4 leukemia = tested on: MOLT-4 leukemia
HOP-92 NSCLC = tested on: HOP-92 NSCLC
HT29 colon = tested on: HT29 colon
OVCAR-5 ovarian = tested on: OVCAR-5 ovarian
SK-MEL-5 melanoma = tested on: SK-MEL-5 melanoma
M14 melanoma = tested on: M14 melanoma
LOX IMVI melanoma = tested on: LOX IMVI melanoma
UO-31 renal = tested on: UO-31 renal
NCI-H522 lung = tested on: NCI-H522 lung
SF-539 CNS = tested on: SF-539 CNS
NCI-H23 lung = tested on: NCI-H23 lung
TK-10 renal = tested on: TK-10 renal
PC-3 prostate = tested on: PC-3 prostate
SNB-19 CNS = tested on: SNB-19 CNS
OVCAR-4 ovarian = tested on: OVCAR-4 ovarian
SK-MEL-2 melanoma = tested on: SK-MEL-2 melanoma
T-47D breast = tested on: T-47D breast
EKVX NSCLC = tested on: EKVX NSCLC
SF-268 CNS = tested on: SF-268 CNS
BT-549 breast = tested on: BT-549 breast
OVCAR-3 ovarian = tested on: OVCAR-3 ovarian
SK-OV-3 ovarian = tested on: SK-OV-3 ovarian
A549 NSCLC = tested on: A549 NSCLC

O=c1oc2ccccc2c2c1Sc1ccccc1N2
TGI (CCRF-CEM leukemia): > 100 µM | TGI (ACHN renal): > 100 µM | TGI (KM12 colon): > 100 µM | TGI (NCI-H226 lung): > 100 µM | TGI (UACC-62 melanoma): > 100 µM | TGI (SF-295 CNS): > 100 µM | TGI (A498 renal): > 100 µM | TGI (HOP-62 NSCLC): > 100 µM | TGI (HL-60(TB) leukemia): > 100 µM | TGI (UACC-257 melanoma): > 100 µM | TGI (HCT-15 colon): > 100 µM | TGI (SR leukemia): > 100 µM | TGI (OVCAR-8 ovarian): > 100 µM | TGI (HCT-116 colon): > 100 µM | TGI (NCI/ADR-RES ovarian): > 100 µM | TGI (RPMI-8226 leukemia): > 100 µM | TGI (NCI-H460 lung): > 100 µM | TGI (IGROV1 ovarian): > 100 µM | TGI (MCF7 breast): > 100 µM | TGI (CAKI-1 renal): > 100 µM | TGI (SK-MEL-28 melanoma): > 100 µM | TGI (MDA-MB-435): > 100 µM | TGI (HCC-2998 colon): > 100 µM | TGI (U251 CNS): > 100 µM | TGI (SW-620 colon): > 100 µM | TGI (K-562 leukemia): > 100 µM | TGI (RXF 393 renal): > 100 µM | TGI (COLO 205 colon): > 100 µM | TGI (786-0 renal): > 100 µM | TGI (SN12C renal): > 100 µM | TGI (MDA-MB-231 breast): > 100 µM | TGI (HS 578T breast): > 100 µM | TGI (DU-145 prostate): > 100 µM | TGI (MOLT-4 leukemia): > 100 µM | TGI (HOP-92 NSCLC): > 100 µM | TGI (HT29 colon): > 100 µM | TGI (OVCAR-5 ovarian): > 100 µM | TGI (SK-MEL-5 melanoma): > 100 µM | TGI (M14 melanoma): > 100 µM | TGI (LOX IMVI melanoma): > 100 µM | TGI (UO-31 renal): > 100 µM | TGI (NCI-H522 lung): > 100 µM | TGI (SF-539 CNS): > 100 µM | TGI (NCI-H23 lung): > 100 µM | TGI (TK-10 renal): > 100 µM | TGI (PC-3 prostate): > 100 µM | TGI (SNB-19 CNS): > 100 µM | TGI (OVCAR-4 ovarian): > 100 µM | TGI (SK-MEL-2 melanoma): > 100 µM | TGI (T-47D breast): 45.1 µM | TGI (EKVX NSCLC): > 100 µM | TGI (SF-268 CNS): > 100 µM | TGI (BT-549 breast): > 100 µM | TGI (OVCAR-3 ovarian): > 100 µM

Cn1c(=O)c2[nH]c(N/N=N/c3nncs3)nc2n(C)c1=O
TGI (CCRF-CEM leukemia): > 100 µM | TGI (ACHN renal): > 100 µM | TGI (SK-OV-3 ovarian): > 100 µM | TGI (KM12 colon): > 100 µM | TGI (UACC-62 melanoma): > 100 µM | TGI (SF-295 CNS): > 100 µM | TGI (A498 renal): > 100 µM | TGI (HOP-62 NSCLC): > 100 µM | TGI (UACC-257 melanoma): > 100 µM | TGI (HCT-15 colon): > 100 µM | TGI (OVCAR-8 ovarian): > 100 µM | TGI (HCT-116 colon): > 100 µM | TGI (NCI/ADR-RES ovarian): > 100 µM | TGI (NCI-H460 lung): > 100 µM | TGI (IGROV1 ovarian): > 100 µM | TGI (MCF7 breast): > 100 µM | TGI (CAKI-1 renal): > 100 µM | TGI (SK-MEL-28 melanoma): > 100 µM | TGI (MDA-MB-435): > 100 µM | TGI (HCC-2998 colon): > 100 µM | TGI (U251 CNS): > 100 µM | TGI (SW-620 colon): > 100 µM | TGI (K-562 leukemia): > 100 µM | TGI (RXF 393 renal): > 100 µM | TGI (A549 NSCLC): > 100 µM | TGI (COLO 205 colon): > 100 µM | TGI (786-0 renal): > 100 µM | TGI (SN12C renal): > 100 µM | TGI (MDA-MB-231 breast): > 100 µM | TGI (HS 578T breast): > 100 µM | TGI (DU-145 prostate): > 100 µM | TGI (MOLT-4 leukemia): > 100 µM | TGI (HOP-92 NSCLC): > 100 µM | TGI (HT29 colon): > 100 µM | TGI (OVCAR-5 ovarian): > 100 µM | TGI (SK-MEL-5 melanoma): > 100 µM | TGI (M14 melanoma): > 100 µM | TGI (LOX IMVI melanoma): > 100 µM | TGI (UO-31 renal): > 100 µM | TGI (SF-539 CNS): > 100 µM | TGI (NCI-H23 lung): > 100 µM | TGI (TK-10 renal): > 100 µM | TGI (PC-3 prostate): > 100 µM | TGI (SNB-19 CNS): > 100 µM | TGI (OVCAR-4 ovarian): > 100 µM | TGI (SK-MEL-2 melanoma): > 100 µM | TGI (T-47D breast): > 100 µM | TGI (EKVX NSCLC): > 100 µM | TGI (SF-268 CNS): > 100 µM | TGI (BT-549 breast): > 100 µM | TGI (OVCAR-3 ovarian): > 100 µM
